Assay results as given in US6458766B1, “Halovir, an antiviral marine natural product, and derivatives thereof” (The Regents of the University of California, priority 1998, dated 2002).
Like-named read-outs stand apart in the source and are kept apart here. Non-standard residues stand in square brackets, D forms with d. Residues, ends and D or L forms follow the SMILES beside them. *: point of attachment. Myristoyl = CCCCCCCCCCCCCC(=O)*; Hyp = O=C(O)[CH]1C[CH](O)CN1; Leu(ol) = CC(C)C[CH](N)CO; X1 = CC(=O)OCC(CC(C)C)N*; Aib = CC(C)(N)C(=O)O

How the values were obtained:
HSV-1 [1] = assay: MTT assay for antiviral activity against HSV-1 in Vero cells; type: cell-based, Herpes simplex virus; settings: for antiviral activity against HSV-1: pure compounds from C18 HPLC of active fractions; for cells subjected to infection protected: test concentration 2.5 μg/mL, Vero cells, 50 pfu virus, five days incubation
Procedure: Antiviral activity of the halovirs was determined in vitro against the. HSV-I by an MTT assay (Hitoshi Takeuchi, An application of tetrazolium (MTT) calorimetric assay for screening of anti-herpes simplex virus compounds, Journal of Virological Methods, 33 (1991) 61-71), modified as follows. Vero cells were plated at a concentration of 10,000 cells/well in 100 μL of minimum essential medium (MEM) containing 5% fetal bovine serum (FBS) in 96-well plates. The cells were incubated overnight at 37° C. and 5% CO2. The media was removed by aspiration, and 100 μL of phosphate buffered saline (PBS) was added to each well and then aspirated. The wells were treated with 100 μL of MEM containing 50 plaque forming units (pfu) of virus and incubated for one hour. Each well was then overlayed with 100 μL of media containing 2% FBS and serial dilutions of an appropriate halovir solution. The halovir solution was previously prepared by dissolving the halovir in DMSO. After incubation for five days, each well was treated with 20 μL of a solution of 10 mg/mL of MTT in PBS. […] The media was carefully aspirated, and 100 μL of acidified isopropanol was added to dissolve any formazan produced. Acidified isopropanol solution is prepared by adding 50 mL Triton X100 and 2 mL concentrated HCL to 450 mL isopropanol. The optical density of the wells at 550 nm was determined using an ELISA plate reader. The amount of formazan present is directly proportional to the number of surviving cells in a given well. The amount of formazan were spectrophotometrically measured in wells with no antiviral agent and virus to establish a quantitative standard for 100% cell survival. Similarly wells with only virus were measured and used to establish a quantitative standard for 0% cell survival. At a test concentration of 2.5 μg/mL, Halovirs A, B, C, and D protected 50%, 40%, 33%, and 55%, respectively, of the cells subjected to infection.

HSV-1 [2] = type: cell-based, Herpes simplex virus
Procedure: Four experimental solutions were prepared.
Solution 1: Viral Inactivation
HSV-1 was diluted to 50,000 pfu/ml in 1.35 mL MEM with 0% Fetal Bovine Serum (0% MEM). This was treated with 8.2 μL of a solution of Halovir A dissolved in DMSO at a concentration of 25 mg/mL.
Solution 2: DMSO Inactivation Control
Solution 2 was prepared in an identical manner as solution 1, except that pure DMSO was added to the viral suspension.
This experiment provides a baseline for 100% cell survival. Solution 3 was prepared with 1.35 mL 0% MEM with 8.2 μL DMSO.
Solution 4: Normal Assay Conditions
Virus was diluted in 1.36 mL 0% MEM to a final concentration of 50,000 pfu/mL. No DMSO or Halovir A was added.
All solutions were vortexed for 30 seconds and then shaken at ambient temperature for 2.5 hours. They were then vortexed for 30 seconds, and 100 μL of each was diluted with 9.9 mL of 0% MEM (100×dilution). The diluted solutions are herein referred to as solutions 1-4.
96-well microtiter plates were prepared with Vero cells overnight, washed with PBS, and aspirated as previously described. 100 μL of Solution 1 was added to each well of a microtiter plate containing cells. This was repeated for Solutions 2-4. The plates were incubated at 37° C. and 5% CO2. After one hour, experiment plates prepared with Solutions 1-3 were overlaid with 100 μL of 2% MEM. […]

## CCCCCCCCCCCCCC(=O)NC(C)(C)C(=O)N1CC(O)CC1C(=O)NC(CC(C)C)C(=O)NC(C(=O)NC(CCC(N)=O)C(=O)NC(CO)CC(C)C)C(C)C (stereo not drawn) [Halovir A, CH3(CH2)12C(O)-Aib-Hyp-Leu-Val-Gln-Leu(OH)] (Myristoyl-[Aib][Hyp]LVQ[Leu(ol)]; configuration not given here)
HSV-1 [1]
  antiviral activity against HSV-1: potent antiviral activity
  cells subjected to infection protected: 50%
HSV-1 [2]; Solution 1: HSV-1 treated with Halovir A for 2.5 hours, 100x dilution, then added to Vero cells, mean of 80 wells
  mean optical density at 550 nm (OD): 1.18
HSV-1 [2]; Solution 4: normal assay conditions, untreated virus, overlay with 2% MEM containing 1.5 μg/mL Halovir A after one hour
  mean optical density at 550 nm (OD): 0.32

## CCCCCCCCCCCCCC(=O)NC(C)(C)C(=O)N1CC(OC(C)=O)CC1C(=O)NC(CC(C)C)C(=O)NC(C(=O)NC(CCC(N)=O)C(=O)NC(COC(C)=O)CC(C)C)C(C)C (stereo not drawn) [Halovir D, CH3(CH2)12C(O)-Aib-Hyp(OAc)-Leu-Val-Gln-Leu(OAc)] (Myristoyl-[Aib][Hyp](Ac)LVQ-X1; configuration not given here)
HSV-1 [1]
  cells subjected to infection protected: 55%

## CCCCCCCCCCCCCC(=O)NC(C)(C)C(=O)N1CC(O)CC1C(=O)NC(CC(C)C)C(=O)NC(C)C(=O)NC(CCC(N)=O)C(=O)NC(CO)CC(C)C (stereo not drawn) [Halovir B, CH3(CH2)12C(O)-Aib-Hyp-Leu-Ala-Gln-Leu(OH)] (Myristoyl-[Aib][Hyp]LAQ[Leu(ol)]; configuration not given here)
HSV-1 [1]
  antiviral activity against HSV-1: potent antiviral activity
  cells subjected to infection protected: 40%

## CCCCCCCCCCCCCC(=O)NC(C)(C)C(=O)N1CCCC1C(=O)NC(CC(C)C)C(=O)NC(C(=O)NC(CCC(N)=O)C(=O)NC(CO)CC(C)C)C(C)C (stereo not drawn) [Halovir C, CH3(CH2)12C(O)-Aib-Pro-Leu-Val-Gln-Leu(OH)] (Myristoyl-[Aib]PLVQ[Leu(ol)]; configuration not given here)
HSV-1 [1]
  antiviral activity against HSV-1: potent antiviral activity
  cells subjected to infection protected: 33%
